Measurements: patent US10689381B2 (priority 2017, dated 2020)
pIC50: −log10 of the molar value. Where two headings read alike, the source gives them in different places.

Legend:
HCT116 = assay: cells; assay type: cell-based, human; details: for pIC50: read-out: IC50 HCT116; for potency relative to vinblastine (more potent): vinblastine-sensitive cell lines
Procedure: (§1) A population of cells (>1×10^6 cells/mL as determined with a hemocytometer) was diluted with Dulbecco's Modified Eagle Medium (DMEM, Gibco) containing 10% fetal bovine serum (FBS, Gibco) to give a final concentration of 30,000 cells/mL. To each well of a 96-well plate (Corning® Costar®) was added 100 μL of the cell media solution with a multichannel pipet.
(§2) The test compounds were then added to the plate as follows: test compounds were diluted in DMSO to a concentration of 1 mM. 10-Fold serial dilutions in DMSO were next performed on a separate 96-well plate. Fresh culture media (100 μL) was added to each well of cells resulting in 200 μL of medium per well followed by 2 μL of each test agent. Compounds were tested in duplicate (n=2-8 times) at six concentrations between 0-1000 nM or 0-10000 nM. Following the addition of compound, cultures were incubated for an additional 72 hours.
(§3) The plates were incubated at 37° C. for 5 minutes (L1210) or 15 min (HCT116 and HCT116/VM46).

L1210 = assay: cells; assay type: cell-based, mouse
Procedure: as §1, §2, §3

Compound	pIC50 (HCT116; Table 1)	pIC50 (L1210; Table 1)	pIC50 (HCT116; Table 2)	pIC50 (L1210; Table 2)	also measured
CCC1(NC(=O)C2CCc3ccccc3C2)CC2CN(CCc3c([nH]c4ccccc34)C(C(=O)OC)(c3cc4c(cc3OC)N(C)C3C(O)(C(=O)OC)C(OC(C)=O)C5(CC)C=CCN6CCC43C65)C2)C1 (mixture of isomers) [Compound 122]					pIC50 (HCT116; Table 4): 6.24; pIC50 (L1210; Table 4): 6.38
CCC(=O)NC1(CC)CC2CN(CCc3c([nH]c4ccccc34)C(C(=O)OC)(c3cc4c(cc3OC)N(C)C3C(O)(C(=O)OC)C(OC(C)=O)C5(CC)C=CCN6CCC43C65)C2)C1 (stereo not shown) [Compound 12]	7.22	7.22			
CC[C@]1(NC(=O)C(C)C)C[C@H]2CN(CCc3c([nH]c4ccccc34)[C@@](C(=O)OC)(c3cc4c(cc3OC)N(C)[C@H]3[C@@](O)(C(=O)OC)[C@H](OC(C)=O)[C@]5(CC)C=CCN6CC[C@]43[C@@H]65)C2)C1 [Compound 13]	7.05	7.15			
CC[C@]1(NC(=O)C(C)(C)C)C[C@H]2CN(CCc3c([nH]c4ccccc34)[C@@](C(=O)OC)(c3cc4c(cc3OC)N(C)[C@H]3[C@@](O)(C(=O)OC)[C@H](OC(C)=O)[C@]5(CC)C=CCN6CC[C@]43[C@@H]65)C2)C1 [Compound 14]	5.44	5.55			
CCCCCC(=O)N[C@@]1(CC)C[C@H]2CN(CCc3c([nH]c4ccccc34)[C@@](C(=O)OC)(c3cc4c(cc3OC)N(C)[C@H]3[C@@](O)(C(=O)OC)[C@H](OC(C)=O)[C@]5(CC)C=CCN6CC[C@]43[C@@H]65)C2)C1 [Compound 15]	7.40	7.26			
CCC1(NC(=O)C2CC2)CC2CN(CCc3c([nH]c4ccccc34)C(C(=O)OC)(c3cc4c(cc3OC)N(C)C3C(O)(C(=O)OC)C(OC(C)=O)C5(CC)C=CCN6CCC43C65)C2)C1 (stereo not shown) [Compound 17]	8.21	8.26			
CC[C@]1(NC(=O)C2CCCC2)C[C@H]2CN(CCc3c([nH]c4ccccc34)[C@@](C(=O)OC)(c3cc4c(cc3OC)N(C)[C@H]3[C@@](O)(C(=O)OC)[C@H](OC(C)=O)[C@]5(CC)C=CCN6CC[C@]43[C@@H]65)C2)C1 [Compound 19]	7.60	7.52			
CC[C@]1(NC(=O)C2CCCCC2)C[C@H]2CN(CCc3c([nH]c4ccccc34)[C@@](C(=O)OC)(c3cc4c(cc3OC)N(C)[C@H]3[C@@](O)(C(=O)OC)[C@H](OC(C)=O)[C@]5(CC)C=CCN6CC[C@]43[C@@H]65)C2)C1 [Compound 20]	7.15	7.26			
CCC1(NC(=O)Cc2ccccc2)CC2CN(CCc3c([nH]c4ccccc34)C(C(=O)OC)(c3cc4c(cc3OC)N(C)C3C(O)(C(=O)OC)C(OC(C)=O)C5(CC)C=CCN6CCC43C65)C2)C1 (stereo not shown) [Compound 21]	7.26	7.26			
CC[C@]1(NC(=O)C(c2ccccc2)c2ccccc2)C[C@H]2CN(CCc3c([nH]c4ccccc34)[C@@](C(=O)OC)(c3cc4c(cc3OC)N(C)[C@H]3[C@@](O)(C(=O)OC)[C@H](OC(C)=O)[C@]5(CC)C=CCN6CC[C@]43[C@@H]65)C2)C1 [Compound 22]	5.42	6.12			
C=CC(=O)N[C@@]1(CC)C[C@H]2CN(CCc3c([nH]c4ccccc34)[C@@](C(=O)OC)(c3cc4c(cc3OC)N(C)[C@H]3[C@@](O)(C(=O)OC)[C@H](OC(C)=O)[C@]5(CC)C=CCN6CC[C@]43[C@@H]65)C2)C1 [Compound 23]	8.22	8.15			pIC50 (HCT116; Table 3): 8.22; pIC50 (L1210; Table 3): 8.15
CCC1(NC(=O)c2ccc(C)cc2)CC2CN(CCc3c([nH]c4ccccc34)C(C(=O)OC)(c3cc4c(cc3OC)N(C)C3C(O)(C(=O)OC)C(OC(C)=O)C5(CC)C=CCN6CCC43C65)C2)C1 (stereo not shown) [Compound 25]			9.35	9.30	potency relative to vinblastine (more potent) (HCT116): 10 fold
CC[C@]1(NC(=O)c2cccc(C)c2)C[C@H]2CN(CCc3c([nH]c4ccccc34)[C@@](C(=O)OC)(c3cc4c(cc3OC)N(C)[C@H]3[C@@](O)(C(=O)OC)[C@H](OC(C)=O)[C@]5(CC)C=CCN6CC[C@]43[C@@H]65)C2)C1 [Compound 26]			9.15	9.30	potency relative to vinblastine (more potent) (HCT116): 10 fold
CC[C@]1(NC(=O)c2ccccc2C)C[C@H]2CN(CCc3c([nH]c4ccccc34)[C@@](C(=O)OC)(c3cc4c(cc3OC)N(C)[C@H]3[C@@](O)(C(=O)OC)[C@H](OC(C)=O)[C@]5(CC)C=CCN6CC[C@]43[C@@H]65)C2)C1 [Compound 27]			7.30	7.26	
CC[C@]1(NC(=O)c2cc(C)cc(C)c2)C[C@H]2CN(CCc3c([nH]c4ccccc34)[C@@](C(=O)OC)(c3cc4c(cc3OC)N(C)[C@H]3[C@@](O)(C(=O)OC)[C@H](OC(C)=O)[C@]5(CC)C=CCN6CC[C@]43[C@@H]65)C2)C1 [Compound 29]			8.22	8.27	
CCc1ccc(C(=O)NC2(CC)CC3CN(CCc4c([nH]c5ccccc45)C(C(=O)OC)(c4cc5c(cc4OC)N(C)C4C(O)(C(=O)OC)C(OC(C)=O)C6(CC)C=CCN7CCC54C76)C3)C2)cc1 (stereo not shown) [Compound 30]			9.15	9.19	potency relative to vinblastine (more potent) (HCT116): 10 fold

Compound	pIC50 (HCT116; Table 1)	pIC50 (L1210; Table 1)	pIC50 (HCT116; Table 2)	pIC50 (L1210; Table 2)	also measured
CCc1cc(CC)cc(C(=O)N[C@@]2(CC)C[C@H]3CN(CCc4c([nH]c5ccccc45)[C@@](C(=O)OC)(c4cc5c(cc4OC)N(C)[C@H]4[C@@](O)(C(=O)OC)[C@H](OC(C)=O)[C@]6(CC)C=CCN7CC[C@]54[C@@H]76)C3)C2)c1 [Compound 31]			8.19	8.38	
CC[C@]1(NC(=O)c2ccc(C(C)C)cc2)C[C@H]2CN(CCc3c([nH]c4ccccc34)[C@@](C(=O)OC)(c3cc4c(cc3OC)N(C)[C@H]3[C@@](O)(C(=O)OC)[C@H](OC(C)=O)[C@]5(CC)C=CCN6CC[C@]43[C@@H]65)C2)C1 [Compound 32]			8.19	8.27	
CCC1(NC(=O)c2cccc(C(C)C)c2)CC2CN(CCc3c([nH]c4ccccc34)C(C(=O)OC)(c3cc4c(cc3OC)N(C)C3C(O)(C(=O)OC)C(OC(C)=O)C5(CC)C=CCN6CCC43C65)C2)C1 (stereo not shown) [Compound 33]			8.06	8.12	
CCCc1ccc(C(=O)NC2(CC)CC3CN(CCc4c([nH]c5ccccc45)C(C(=O)OC)(c4cc5c(cc4OC)N(C)C4C(O)(C(=O)OC)C(OC(C)=O)C6(CC)C=CCN7CCC54C76)C3)C2)cc1 (stereo not shown) [Compound 34]			8.32	8.37	
CCCCc1ccc(C(=O)N[C@@]2(CC)C[C@H]3CN(CCc4c([nH]c5ccccc45)[C@@](C(=O)OC)(c4cc5c(cc4OC)N(C)[C@H]4[C@@](O)(C(=O)OC)[C@H](OC(C)=O)[C@]6(CC)C=CCN7CC[C@]54[C@@H]76)C3)C2)cc1 [Compound 35]			7.70	7.52	
CC[C@]1(NC(=O)c2ccc(CC(C)C)cc2)C[C@H]2CN(CCc3c([nH]c4ccccc34)[C@@](C(=O)OC)(c3cc4c(cc3OC)N(C)[C@H]3[C@@](O)(C(=O)OC)[C@H](OC(C)=O)[C@]5(CC)C=CCN6CC[C@]43[C@@H]65)C2)C1 [Compound 36]			8.00	7.60	
CCC(C)c1ccc(C(=O)N[C@@]2(CC)C[C@H]3CN(CCc4c([nH]c5ccccc45)[C@@](C(=O)OC)(c4cc5c(cc4OC)N(C)[C@H]4[C@@](O)(C(=O)OC)[C@H](OC(C)=O)[C@]6(CC)C=CCN7CC[C@]54[C@@H]76)C3)C2)cc1 (stereo partly shown) [Compound 37]			7.82	7.60	
CC[C@]1(NC(=O)c2ccc(C(C)(C)C)cc2)C[C@H]2CN(CCc3c([nH]c4ccccc34)[C@@](C(=O)OC)(c3cc4c(cc3OC)N(C)[C@H]3[C@@](O)(C(=O)OC)[C@H](OC(C)=O)[C@]5(CC)C=CCN6CC[C@]43[C@@H]65)C2)C1 [Compound 38]			8.72	9.22	
CCC1(NC(=O)c2ccc(C(F)(F)F)cc2)CC2CN(CCc3c([nH]c4ccccc34)C(C(=O)OC)(c3cc4c(cc3OC)N(C)C3C(O)(C(=O)OC)C(OC(C)=O)C5(CC)C=CCN6CCC43C65)C2)C1 (stereo not shown) [Compound 39]			8.48	8.37	
CC[C@]1(NC(=O)c2cccc(C(F)(F)F)c2)C[C@H]2CN(CCc3c([nH]c4ccccc34)[C@@](C(=O)OC)(c3cc4c(cc3OC)N(C)[C@H]3[C@@](O)(C(=O)OC)[C@H](OC(C)=O)[C@]5(CC)C=CCN6CC[C@]43[C@@H]65)C2)C1 [Compound 40]			8.19	8.21	
CCC1(NC(=O)c2ccccc2C(F)(F)F)CC2CN(CCc3c([nH]c4ccccc34)C(C(=O)OC)(c3cc4c(cc3OC)N(C)C3C(O)(C(=O)OC)C(OC(C)=O)C5(CC)C=CCN6CCC43C65)C2)C1 (stereo not shown) [Compound 41]			7.22	7.35	
CCC1(NC(=O)c2ccc(-c3ccccc3)cc2)CC2CN(CCc3c([nH]c4ccccc34)C(C(=O)OC)(c3cc4c(cc3OC)N(C)C3C(O)(C(=O)OC)C(OC(C)=O)C5(CC)C=CCN6CCC43C65)C2)C1 (stereo not shown) [Compound 42]			8.27	8.26	
CCC1(NC(=O)c2ccc(C3CCCCC3)cc2)CC2CN(CCc3c([nH]c4ccccc34)C(C(=O)OC)(c3cc4c(cc3OC)N(C)C3C(O)(C(=O)OC)C(OC(C)=O)C5(CC)C=CCN6CCC43C65)C2)C1 (stereo not shown) [Compound 43]			7.52	7.40	
CC[C@]1(NC(=O)c2ccc(F)cc2)C[C@H]2CN(CCc3c([nH]c4ccccc34)[C@@](C(=O)OC)(c3cc4c(cc3OC)N(C)[C@H]3[C@@](O)(C(=O)OC)[C@H](OC(C)=O)[C@]5(CC)C=CCN6CC[C@]43[C@@H]65)C2)C1 [Compound 44]			8.85	8.74	
CC[C@]1(NC(=O)c2cccc(F)c2)C[C@H]2CN(CCc3c([nH]c4ccccc34)[C@@](C(=O)OC)(c3cc4c(cc3OC)N(C)[C@H]3[C@@](O)(C(=O)OC)[C@H](OC(C)=O)[C@]5(CC)C=CCN6CC[C@]43[C@@H]65)C2)C1 [Compound 45]			8.28	8.24	
